Experiments:
[1] = Ratio of drug uptake in frontal lobe to cerebellum in anesthetized cynomolgus monkey after 35 mins postinjection; type: ADME, organism-based, Macaca fascicularis; settings: in vivo
[2] = Ratio of drug uptake in pons to cerebellum in anesthetized cynomolgus monkey after 85 mins postinjection; type: ADME, organism-based, Macaca fascicularis; settings: in vivo
[3] = system: Putamen; assay: Drug uptake in anesthetized cynomolgus monkey brain putamen after 105 mins postinjection; type: ADME, organism-based, Macaca fascicularis; parameters: unit not given here; settings: in vivo, 1.75 h
[4] = system: Midbrain; assay: Drug uptake in anesthetized cynomolgus monkey brain midbrain after 135 mins postinjection; type: ADME, organism-based, Macaca fascicularis; settings: in vivo, 2.25 h
[5] = Ratio of drug uptake in putamen to cerebellum in anesthetized cynomolgus monkey after 235 mins postinjection; type: ADME, organism-based, Macaca fascicularis; settings: in vivo
[6] = system: Pons; assay: Drug uptake in anesthetized cynomolgus monkey brain pons after 95 mins postinjection; type: ADME, organism-based, Macaca fascicularis; settings: in vivo
[7] = system: Midbrain; assay: Drug uptake in anesthetized cynomolgus monkey brain midbrain after 155 mins postinjection; type: ADME, organism-based, Macaca fascicularis; settings: in vivo
[8] = system: Caudate; assay: Drug uptake in anesthetized cynomolgus monkey brain caudate after 27.5 mins postinjection; type: ADME, organism-based, Macaca fascicularis, Caudate nucleus; settings: in vivo
[9] = system: Pons; assay: Drug uptake in anesthetized cynomolgus monkey brain pons after 165 mins postinjection; type: ADME, organism-based, Macaca fascicularis; settings: in vivo, 2.75 h
[10] = system: Pons; assay: Drug uptake in anesthetized cynomolgus monkey brain pons after 4.5 mins postinjection; type: ADME, organism-based, Macaca fascicularis; settings: in vivo, 0.075 h
[11] = system: Medulla; assay: Drug uptake in anesthetized cynomolgus monkey brain medulla after 0.5 mins postinjection; type: ADME, organism-based, Macaca fascicularis; settings: in vivo
[12] = system: Midbrain; assay: Drug uptake in anesthetized cynomolgus monkey brain midbrain after 3.5 mins postinjection; type: ADME, organism-based, Macaca fascicularis; parameters: unit not given here; settings: in vivo
[13] = system: Medulla; assay: Drug uptake in anesthetized cynomolgus monkey brain medulla after 215 mins postinjection; type: ADME, organism-based, Macaca fascicularis; settings: in vivo
[14] = Ratio of drug uptake in thalamus to cerebellum in anesthetized cynomolgus monkey after 95 mins postinjection; type: ADME, organism-based, Macaca fascicularis; settings: in vivo
[15] = Ratio of drug uptake in frontal lobe to cerebellum in anesthetized cynomolgus monkey after 135 mins postinjection; type: ADME, organism-based, Macaca fascicularis; settings: in vivo, 2.25 h
[16] = system: Pons; assay: Drug uptake in anesthetized cynomolgus monkey brain pons after 155 mins postinjection; type: ADME, organism-based, Macaca fascicularis; settings: in vivo
[17] = system: Putamen; assay: Drug uptake in anesthetized cynomolgus monkey brain putamen after 22.5 mins postinjection; type: ADME, organism-based, Macaca fascicularis; parameters: unit not given here; settings: in vivo, 0.375 h
[18] = system: Thalamus; assay: Drug uptake in anesthetized cynomolgus monkey brain thalamus after 2.5 mins postinjection; type: ADME, organism-based, Macaca fascicularis; parameters: unit not given here; settings: in vivo
[19] = Ratio of drug uptake in occipital lobe to cerebellum in anesthetized cynomolgus monkey after 12.5 mins postinjection; type: ADME, organism-based, Macaca fascicularis; settings: in vivo
[20] = Ratio of drug uptake in caudate to cerebellum in anesthetized cynomolgus monkey after 95 mins postinjection; type: ADME, organism-based, Macaca fascicularis; settings: in vivo
[21] = Drug uptake in anesthetized cynomolgus monkey brain cerebellum after 225 mins postinjection; type: ADME, organism-based, Macaca fascicularis; settings: in vivo, 3.75 h
[22] = system: Caudate; assay: Drug uptake in anesthetized cynomolgus monkey brain caudate after 4.5 mins postinjection; type: ADME, organism-based, Macaca fascicularis, Caudate nucleus; settings: in vivo, 0.075 h
[23] = Ratio of drug uptake in occipital lobe to cerebellum in anesthetized cynomolgus monkey after 105 mins postinjection; type: ADME, organism-based, Macaca fascicularis; settings: in vivo, 1.75 h
[24] = system: Putamen; assay: Drug uptake in anesthetized cynomolgus monkey brain putamen after 2.5 mins postinjection; type: ADME, organism-based, Macaca fascicularis; settings: in vivo
[25] = Ratio of drug uptake in occipital lobe to cerebellum in anesthetized cynomolgus monkey after 95 mins postinjection; type: ADME, organism-based, Macaca fascicularis; settings: in vivo
[26] = system: Midbrain; assay: Drug uptake in anesthetized cynomolgus monkey brain midbrain after 125 mins postinjection; type: ADME, organism-based, Macaca fascicularis; parameters: unit not given here; settings: in vivo
[27] = Ratio of drug uptake in midbrain to cerebellum in anesthetized cynomolgus monkey after 22.5 mins postinjection; type: ADME, organism-based, Macaca fascicularis; settings: in vivo, 0.375 h
[28] = system: Thalamus; assay: Drug uptake in anesthetized cynomolgus monkey brain thalamus after 15.5 mins postinjection; type: ADME, organism-based, Macaca fascicularis; parameters: unit not given here; settings: in vivo
[29] = system: Pons; assay: Drug uptake in anesthetized cynomolgus monkey brain pons after 55 mins postinjection; type: ADME, organism-based, Macaca fascicularis; settings: in vivo
[30] = system: Putamen; assay: Drug uptake in anesthetized cynomolgus monkey brain putamen after 165 mins postinjection; type: ADME, organism-based, Macaca fascicularis; settings: in vivo, 2.75 h
[31] = system: Putamen; assay: Drug uptake in anesthetized cynomolgus monkey brain putamen after 65 mins postinjection; type: ADME, organism-based, Macaca fascicularis; parameters: unit not given here; settings: in vivo
[32] = system: Pons; assay: Drug uptake in anesthetized cynomolgus monkey brain pons after 22.5 mins postinjection; type: ADME, organism-based, Macaca fascicularis; settings: in vivo, 0.375 h
[33] = Octanol-water partition coefficient, log P at pH 7.4 by shake-flask method; type: physicochemical
[34] = system: Medulla; assay: Drug uptake in anesthetized cynomolgus monkey brain medulla after 18.5 mins postinjection; type: ADME, organism-based, Macaca fascicularis; settings: in vivo
[35] = Drug uptake in anesthetized cynomolgus monkey brain frontal lobe after 35 mins postinjection; type: ADME, organism-based, Macaca fascicularis; settings: in vivo
[36] = Ratio of drug uptake in pons to cerebellum in anesthetized cynomolgus monkey after 95 mins postinjection; type: ADME, organism-based, Macaca fascicularis; settings: in vivo
[37] = system: Midbrain; assay: Drug uptake in anesthetized cynomolgus monkey brain midbrain after 18.5 mins postinjection; type: ADME, organism-based, Macaca fascicularis; parameters: unit not given here; settings: in vivo
[38] = system: Medulla; assay: Drug uptake in anesthetized cynomolgus monkey brain medulla after 12.5 mins postinjection; type: ADME, organism-based, Macaca fascicularis; settings: in vivo
[39] = system: Caudate; assay: Drug uptake in anesthetized cynomolgus monkey brain caudate after 9.5 mins postinjection; type: ADME, organism-based, Macaca fascicularis, Caudate nucleus; settings: in vivo
[40] = system: Thalamus; assay: Drug uptake in anesthetized cynomolgus monkey brain thalamus after 12.5 mins postinjection; type: ADME, organism-based, Macaca fascicularis; parameters: unit not given here; settings: in vivo
[41] = Ratio of drug uptake in thalamus to cerebellum in anesthetized cynomolgus monkey after 115 mins postinjection; type: ADME, organism-based, Macaca fascicularis; settings: in vivo
[42] = system: Pons; assay: Drug uptake in anesthetized cynomolgus monkey brain pons after 12.5 mins postinjection; type: ADME, organism-based, Macaca fascicularis; settings: in vivo
[43] = system: Thalamus; assay: Drug uptake in anesthetized cynomolgus monkey brain thalamus after 6.5 mins postinjection; type: ADME, organism-based, Macaca fascicularis; parameters: unit not given here; settings: in vivo
[44] = Ratio of drug uptake in caudate to cerebellum in anesthetized cynomolgus monkey after 9.5 mins postinjection; type: ADME, organism-based, Macaca fascicularis; settings: in vivo
[45] = Ratio of drug uptake in occipital lobe to cerebellum in anesthetized cynomolgus monkey after 0.5 mins postinjection; type: ADME, organism-based, Macaca fascicularis; settings: in vivo
[46] = Drug uptake in anesthetized cynomolgus monkey brain occipital lobe after 215 mins postinjection; type: ADME, organism-based, Macaca fascicularis; settings: in vivo
[47] = Drug uptake in anesthetized cynomolgus monkey brain occipital lobe after 6.5 mins postinjection; type: ADME, organism-based, Macaca fascicularis; parameters: unit not given here; settings: in vivo

O=C(OCC[18F])C1C2CCC(CC1c1cccc(/C=C\I)c1)N2 (configuration not stated) showed a Ratio [1] of 0.7, a Ratio [2] of 1.1 and a Drug uptake [3] of 3.88. The Drug uptake [4] was 3.97, the Ratio [5] was 1.8 and the Drug uptake [6] was 3.05. It also gave a Drug uptake [7] of 3.66, a Drug uptake [8] of 3.39 and a Drug uptake [9] of 2.46. The Drug uptake [10] was 1.2, the Drug uptake [11] was 0 and the Drug uptake [12] was 1.19. It also gave a Drug uptake [13] of 2.43, a Ratio [14] of 1.5 and a Ratio [15] of 1.1. The Drug uptake [16] was 2.5, the Drug uptake [17] was 3.96 and the Drug uptake [18] was 0.43. The Ratio [19] was 0.7, the Ratio [20] was 1.3 and the Drug uptake [21] was 1.26. The Drug uptake [22] was 1.23, the Ratio [23] was 1 and the Drug uptake [24] was 0.44. For the same compound, the Ratio [25] was 0.9, the Drug uptake [26] was 4.08 and the Ratio [27] was 1.1. For the same compound, the Drug uptake [28] was 3.48, the Drug uptake [29] was 3.27 and the Drug uptake [30] was 3.02. The Drug uptake [31] was 4.36, the Drug uptake [32] was 3.05 and the logD [33] was 1.69. The Drug uptake [34] was 3.61, the Drug uptake [35] was 2.89 and the Ratio [36] was 1.2. For the same compound, the Drug uptake [37] was 4.37, the Drug uptake [38] was 3.37 and the Drug uptake [39] was 2.5. For the same compound, the Drug uptake [40] was 3.32, the Ratio [41] was 1.7 and the Drug uptake [42] was 2.58. The Drug uptake [43] was 2.49, the Ratio [44] was 0.7 and the Ratio [45] was 0.8. The Drug uptake [46] was 1.28 and the Drug uptake [47] was 2.

Reference: ChEMBL document CHEMBL1151757, “Synthesis, radiosynthesis, and biological evaluation of fluorine-18-labeled 2beta-carbo(fluoroalkoxy)-3beta-(3'-((Z)-2-haloethenyl)phenyl)nortropanes: candidate radioligands for in vivo imaging of the serotonin transporter with positron emission tomography” (J Med Chem, 2008)
